For this experiment, the target named is T1, JMJD3 (Homo sapiens, UniProt O15054).
T1 construct: purchased BPS Bioscience 50115
T1 sequence (O15054 1043-1682 isoform O15054-1): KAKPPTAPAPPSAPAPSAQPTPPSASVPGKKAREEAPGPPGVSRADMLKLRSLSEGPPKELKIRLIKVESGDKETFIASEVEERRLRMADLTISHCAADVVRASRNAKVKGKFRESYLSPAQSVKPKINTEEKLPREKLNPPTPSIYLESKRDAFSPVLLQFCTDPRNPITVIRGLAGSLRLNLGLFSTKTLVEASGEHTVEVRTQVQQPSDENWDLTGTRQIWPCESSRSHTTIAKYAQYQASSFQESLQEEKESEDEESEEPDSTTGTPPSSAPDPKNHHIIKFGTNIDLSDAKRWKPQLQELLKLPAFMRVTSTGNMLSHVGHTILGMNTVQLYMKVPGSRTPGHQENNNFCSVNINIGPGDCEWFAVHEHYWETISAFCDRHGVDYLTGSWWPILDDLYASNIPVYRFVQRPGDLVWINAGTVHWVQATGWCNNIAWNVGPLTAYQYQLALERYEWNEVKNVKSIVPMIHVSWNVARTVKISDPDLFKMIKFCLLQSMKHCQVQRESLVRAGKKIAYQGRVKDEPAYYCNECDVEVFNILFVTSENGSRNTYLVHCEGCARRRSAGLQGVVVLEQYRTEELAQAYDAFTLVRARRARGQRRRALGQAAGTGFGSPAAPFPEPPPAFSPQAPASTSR
The experiment in a line: JMJD3 in vitro enzyme inhibition assay (AlphaScreen). Format: biochemical. Particulars: Table 5; 1 nM JMJD3, H3K27me3-biotin labeled peptide. The source says:
This assay determines the ability of a test compound to inhibit Jarid1B, JMJD2C and JMJD3 demethylase activity. Baculovirus expressed Jarid1B (GenBank Accession #NM-006618, AA 2-751) was purchased from BPS Bioscience (Cat #50121) or custom made by MolecularThroughput. Baculovirus expressed JMJD2C (GenBank Accession #BC143571, AA 2-372) was purchased from BPS Bioscience (Cat#50105). Baculovirus expressed JMJD3 (GenBank Accession #NM-001080424, AA1043-end) was purchased from BPS Bioscience (Cat#50115).
The ability of test compounds to inhibit the activity of JMJD3 was determined in 384-well plate format under the following reaction conditions: 1 nM JMJD3, 250 nM H3K27me3-biotin labeled peptide (Anaspec cat # 64367), 1 µM alpha-ketoglutaric acid in assay buffer of 50 mM HEPES, pH7.3, 0.005% Brij35, 0.5 mM TCEP, 0.2 mg/ml BSA, 50 µM sodium L-ascorbate, 5 µM ammonium iron(II) sulfate. Reaction product is determined quantitatively by AlphaScreen detection after the addition of detection reagents anti-H3K27me1 antibody, 5 µg/ml AlphaScreen® Streptavidin-coated Donor beads, and 5 µg/ml AlphaScreen® Protein A Acceptor beads in 50 mM HEPES, pH7.3, 10 mM NaCl, 0.005% Brij35, 10 mM EDTA, 2 mg/ml BSA.
The assay reaction was initiated by the following: 3 µl of the mixture of 750 nM H3K27me3-biotin labeled peptide and 3 µM alpha-ketoglutaric acid with 3 µl of 11-point serial diluted inhibitor in 3% DMSO are added to each well of 384 well Proxiplate (Perkin Elmer), followed by the addition of 3 µl of 3 nM JMJD3 to initiate the reaction. The reaction mixture is incubated at room temperature for 20 minutes, and terminated by the addition of 3 µl of appropriate dilution of anti H3K27me1 antibody in 50 mM HEPES, pH7.3, 10 mM NaCl, 0.005% Brij35, 10 mM EDTA, 2 mg/ml BSA. Plates will then incubated at room temperature for 1 hour, followed by addition of 3 µl of 25 µg/ml AlphaScreen® Streptavidin-coated Donor beads and AlphaScreen® Protein A Acceptor beads in 50 mM HEPES, pH7.3, 10 mM NaCl, 0.005% Brij35, 10 mM EDTA, 2 mg/ml BSA. Plates will then be read by EnVision Multilabel Reader in AlphaScreen mode after minimum 2 hour incubation at room temperature. The AlphaScreen signal for each well is used to determine inhibition constant (IC50).
(In general: Alpha assays give light when donor and acceptor beads are brought close together.)
The compound `FC(F)(F)c1[nH]nnc1-c1ccnc(-c2cn(CCc3ccccc3Cl)cn2)c1` [Example 57] displayed an IC50 of over 10 µM. Consider `FC(F)(F)c1[nH]nnc1-c1ccnc(-c2cn(CC3CCCc4ccccc43)cn2)c1` (centres unmarked) [Example 58, 2-{1-[(1,2,3,4-tetrahydronaphthalen-1-yl)methyl]-1H-imidazol-4-yl}-4-[5-(trifluoromethyl)-1H-1,2,3-triazol-4-yl]pyridine], for which the IC50 is over 10 µM. `CCOc1ccccc1CCn1cnc(-c2cc(-c3nn[nH]c3C(F)(F)F)ccn2)c1` [Example 59] yielded a concentration for half-maximal inhibition (IC50) of over 10 µM.

In turn, `Fc1ccc(Cn2cnc(-c3cc(-c4nn[nH]c4C(F)(F)F)ccn3)c2)cc1` [Example 61, 2-{1-[(4-fluorophenyl)methyl]-1H-imidazol-4-yl}-4-[5-(trifluoromethyl)-1H-1,2,3-triazol-4-yl]pyridine] displayed an IC50 of over 10 µM. As for `Fc1ccccc1Cn1cnc(-c2cc(-c3nn[nH]c3C(F)(F)F)ccn2)c1` [Example 62, 2-{1-[(2-fluoroprtenyl)methyl]-1H-imidazol-4-yl}-4-[5-(trifluoromethyl)-1H-1,2,3-triazol-4-yl]pyridine], the IC50 is over 10 µM. `FC(F)(F)c1[nH]nnc1-c1ccnc(-c2cn(Cc3ccc(Cl)cc3)cn2)c1` [Example 63, 2-{1-[(4-chlorophenyl)methyl]-1H-imidazol-4-yl}-4-[5-(trifluoromethyl)-1H-1,2,3-triazol-4-yl]pyridine] showed an IC50 of over 10 µM.

`FC(F)(F)c1[nH]nnc1-c1ccnc(-c2cn(Cc3ccccc3Cl)cn2)c1` [Example 64, 2-{1-[(2-chlorophenyl)methyl]-1H-imidazol-4-yl}-4-[5-(trifluoromethyl)-1H-1,2,3-triazol-4-yl]pyridine] showed an IC50 of over 10 µM. `Cc1ccc(Cn2cnc(-c3cc(-c4nn[nH]c4C(F)(F)F)ccn3)c2)cc1` [Example 65, 2-{1-[(4-methylphenyl)methyl]-1H-imidazol-4-yl}-4-[5-(trifluoromethyl)-1H-1,2,3-triazol-4-yl]pyridine] came in with a half-maximal inhibitory concentration (IC50) of over 10 µM. For `Cc1ccccc1Cn1cnc(-c2cc(-c3nn[nH]c3C(F)(F)F)ccn2)c1` [Example 66, 2-{1-[(2-methylphenyl)methyl]-1H-imidazol-4-yl}-4-[5-(trifluoromethyl)-1H-1,2,3-triazol-4-yl]pyridine], the IC50 is over 10 µM. Compound `COc1ccc(Cn2cnc(-c3cc(-c4nn[nH]c4C(F)(F)F)ccn3)c2)cc1` [Example 67, 2-{1-[(4-methoxyphenyl)methyl]-1H-imidazol-4-yl}-4-[5-(trifluoromethyl)-1H-1,2,3-triazol-4-yl]pyridine] yielded a 50% inhibitory concentration (IC50) of over 10 µM.

Compound `Fc1ccc(Cn2cnc(-c3cc(-c4nn[nH]c4C(F)(F)F)ccn3)c2)c(F)c1` [Example 68, 2-{1-[(2,4-difluorophenyl)methyl]-1H-imidazol-4-yl}-4-[5-(trifluoromethyl)-1H-1,2,3-triazol-4-yl]pyridine] gave an IC50 of over 10 µM. As to `Fc1cccc(F)c1Cn1cnc(-c2cc(-c3nn[nH]c3C(F)(F)F)ccn2)c1` [Example 69, 2-{1-[(2,6-difluorophenyl)methyl]-1H-imidazol-4-yl}-4-[5-(trifluoromethyl)-1H-1,2,3-triazol-4-yl]pyridine], the IC50 was over 10 µM. The compound `Cc1cc(F)ccc1Cn1cnc(-c2cc(-c3nn[nH]c3C(F)(F)F)ccn2)c1` [Example 70, 2-{1-[(4-fluoro-2-methylphenyl)methyl]-1H-imidazol-4-yl}-4-[5-(trifluoromethyl)-1H-1,2,3-triazol-4-yl]pyridine] gave an IC50 of over 10 µM.

Compound `Cc1ccc(Cn2cnc(-c3cc(-c4nn[nH]c4C(F)(F)F)ccn3)c2)c(F)c1` [Example 71, 2-{1-[(2-fluoro-4-methylphenyl)methyl]-1H-imidazol-4-yl}-4-[5-(trifluoromethyl)-1H-1,2,3-triazol-4-yl]pyridine] showed an IC50 of over 10 µM. Consider `FC(F)(F)c1[nH]nnc1-c1ccnc(-c2cn(Cc3ccccc3)cn2)c1` [Example 72, 2-(1-benzyl-1H-imidazol-4-yl)-4-[5-(trifluoromethyl)-1H-1,2,3-triazol-4-yl]pyridine], for which the IC50 is over 10 µM. With `CC(c1ccccc1)n1cnc(-c2cc(-c3nn[nH]c3C(F)(F)F)ccn2)c1` (centres unmarked) [Example 73, 2-[1-(1-phenylethyl)-1H-imidazol-4-yl]-4-[5-(trifluoromethyl)-1H-1,2,3-triazol-4-yl]pyridine] the figure was over 10 µM; with `CCC(c1ccccc1)n1cnc(-c2cc(-c3nn[nH]c3C(F)(F)F)ccn2)c1` (centres unmarked) [Example 74, 2-[1-(1-phenylpropyl)-1H-imidazol-4-yl]-4-[5-(trifluoromethyl)-1H-1,2,3-triazol-4-yl]pyridine], over 10 µM; with `CC(C)C(c1ccccc1)n1cnc(-c2cc(-c3nn[nH]c3C(F)(F)F)ccn2)c1` (centres unmarked) [Example 75, 2-[1-(2-methyl-1-phenylpropyl)-1H-imidazol-4-yl]-4-[5-(trifluoromethyl)-1H-1,2,3-triazol-4-yl]pyridine], over 10 µM. Compound `FC(F)(F)COc1ccccc1Cn1cnc(-c2cc(-c3nn[nH]c3C(F)(F)F)ccn2)c1` [Example 76, 2-(1-{[2-(2,2,2-trifluoroethoxy)phenyl]methyl}-1H-imidazol-4-yl)-4-[5-(trifluoromethyl)-1H-1,2,3-triazol-4-yl]pyridine] came in with an IC50 of over 10 µM.

Take `Fc1ccc(CCn2cnc(-c3cc(-c4nn[nH]c4C(F)(F)F)ccn3)c2)cc1` [Example 77]: the IC50 lay within 1 to 10 µM. `Fc1cccc(CCn2cnc(-c3cc(-c4nn[nH]c4C(F)(F)F)ccn3)c2)c1` [Example 78, 2-{1-[2-(3-fluorophenyl)ethyl]-1H-imidazol-4-yl}-4-[5-(trifluoromethyl)-1H-1,2,3-triazol-4-yl]pyridine]: the IC50 was 1 to 10 µM. In turn, `Fc1cccc(CCn2cnc(-c3cc(-c4nn[nH]c4C(F)(F)F)ccn3)c2)c1F` [Example 79, 2-{1-[2-(2,3-difluorophenyl)ethyl]-1H-imidazol-4-yl}-4-[5-(trifluoromethyl)-1H-1,2,3-triazol-4-yl]pyridine] yielded an IC50 of over 10 µM. In turn, `Fc1cccc(Cl)c1CCn1cnc(-c2cc(-c3nn[nH]c3C(F)(F)F)ccn2)c1` [Example 80, 2-{1-[2-(2-chloro-6-fluorophenyl)ethyl]-1H-imidazol-4-yl}-4-[5-(trifluoromethyl)-1H-1,2,3-triazol-4-yl]pyridine] displayed a half-maximal inhibitory concentration (IC50) of over 10 µM. The same measure for `Fc1cc(F)c(CCn2cnc(-c3cc(-c4nn[nH]c4C(F)(F)F)ccn3)c2)cc1F` [Example 81, 4-[5-(trifluoromethyl)-1H-1,2,3-triazol-4-yl]-2-{1-[2-(2,4,5-trifluorophenyl)ethyl]-1H-imidazol-4-yl}pyridine]: over 10 µM; for `Fc1cc(F)c(CCn2cnc(-c3cc(-c4nn[nH]c4C(F)(F)F)ccn3)c2)c(F)c1` [Example 82, 4-[5-(trifluoromethyl)-1H-1,2,3-triazol-4-yl]-2-{1-[2-(2,4,6-trifluorophenyl)ethyl]-1H-imidazol-4-yl}pyridine]: over 10 µM; for `Fc1ccc(CCn2cnc(-c3cc(-c4nn[nH]c4C(F)(F)F)ccn3)c2)c(F)c1` [Example 86, 2-{1-[2-(2,4-difluorophenyl)ethyl]-1H-imidazol-4-yl}-4-[5-(trifluoromethyl)-1H-1,2,3-triazol-4-yl]pyridine]: over 10 µM. Take `Fc1cccc(F)c1CCn1cnc(-c2cc(-c3nn[nH]c3C(F)(F)F)ccn2)c1` [Example 87, 2-{1-[2-(2,6-difluorophenyl)ethyl]-1H-imidazol-4-yl}-4-[5-(trifluoromethyl)-1H-1,2,3-triazol-4-yl]pyridine]: the IC50 was over 10 µM. `Fc1ccc(F)c(CCn2cnc(-c3cc(-c4nn[nH]c4C(F)(F)F)ccn3)c2)c1` [Example 88, 2-{1-[2-(2,5-difluorophenyl)ethyl]-1H-imidazol-4-yl}-4-[5-(trifluoromethyl)-1H-1,2,3-triazol-4-yl]pyridine] showed an IC50 of over 10 µM. With `O=C(c1ccccc1)N1CCC[C@@H](n2cnc(-c3cc(-c4nn[nH]c4C(F)(F)F)ccn3)c2)C1` [Example 89, 2-{1-[(3R)-1-benzoylpiperidin-3-yl]-1H-imidazol-4-yl}-4-[5-(trifluoromethyl)-1H-1,2,3-triazol-4-yl]pyridine] the figure was over 10 µM.

By IC50 is commonly meant the concentration that gives 50% inhibition. A lower IC50 goes with greater potency.

The record behind these values is EP3436445B1, “HISTONE DEMETHYLASE INHIBITORS” (Celgene Quanticel Research, Inc., priority 2016, dated 2017).
